The results in this text go back to ChEMBL document CHEMBL3507680, “University of Dundee, Gates Library screen for HepG2 cell viability”.

A short description of the series: Human HepG2 cell viability assay in 384 well format. The class given is toxicity, cell-based. Details: dose 125 nL, time 70.5 hour; concentration not given beside the values. The following applies: HepG2 cells, read-out: Inhibition.
Regarding `CN(C(=O)c1ccc(Cl)cc1)C1CCN(c2ccccn2)CC1`, the cytotoxicity at 70.5 h was found to be 2.33%.
With `COc1ccc(-c2csc3c2c(N)nc(=O)n3CCN(C)C)cc1`, the cytotoxicity at 70.5 h was -7.62%.
Then `Cc1ccc(C(=O)N2CCN(c3ccnc4ccsc34)CC2)o1`, with -12%; and `O=C(Nc1cnccn1)[C@H]1COC[C@H]2CN(C3CCCC3)C[C@H]21`, with -2.04%.
As for `CCOc1cccc(C(=O)N2C[C@H]3CC[C@@H]2CN(C(=O)C2CCC2)C3)c1`, the cytotoxicity at 70.5 h was determined as 23.1%.
Consider `Cc1ccncc1CN1CCOCC1c1[nH]ncc1C` (stereo not given), for which the cytotoxicity at 70.5 h is -1.54%.
With `CC(C)c1nc(CNc2nccc(CCC(F)(F)F)n2)cs1`, the cytotoxicity at 70.5 h was -8.19%.
For the molecule `CN(C)C(=O)C1CCCN1c1ccnc2ccsc12` (stereo not given), the cytotoxicity at 70.5 h was -7.45%.
Take `Cc1ccc(S(=O)(=O)N2CCC(S(=O)(=O)c3nncn3C)CC2)cc1C`: the cytotoxicity at 70.5 h was -6.93%.
For the molecule `CC(C)c1ncc2c(n1)CN(Cc1nc(-c3cccnc3)no1)CC2`, the cytotoxicity at 70.5 h worked out at 13.2%.
`Cc1cccc(NC(=O)Cc2cnc3n(C)c(=O)[nH]c(=O)n23)c1`: the cytotoxicity at 70.5 h was determined as 22.4%.
Regarding `Cc1nc(O)ccc1C(=O)NCc1ncoc1C`, the cytotoxicity at 70.5 h is -2.74%.
Then `COCCn1ccnc1C1CCN(c2cccc(C(=O)O)n2)CC1`, with -3.81%; and `Cc1nc2sccn2c1CNC1(c2ccccc2F)CCCC1`, with -8.91%.
Regarding `CCS(=O)(=O)c1ccc(N2CCC(NC(=O)c3cnn(C)c3)CC2)cc1`, the cytotoxicity at 70.5 h was -4.33%.
Then `COc1c(C2CCCN2Cc2csc(C(C)C)n2)c(C)nn1C` (stereo not given), with 41%; and `CC(=O)Nc1ccc(F)c(S(=O)(=O)NC(C)(C)C)c1`, with -6.2%.
For `COc1ccccc1C1(CNc2cc(C(=O)N(C)C)ccn2)CC1`, the cytotoxicity at 70.5 h was determined as 0.399%.
Take `O=C(NC[C@H]1O[C@H](Cc2cc(-c3ccccn3)on2)CC[C@@H]1O)C1CC1`: the cytotoxicity at 70.5 h is -7.04%.
For the molecule `CN(C)CCNc1ccc(-c2nc(COc3ccccc3)no2)cn1`, the cytotoxicity at 70.5 h came out at 3.62%.
For the molecule `CCNC(=O)[C@@H]1C[C@H](NC(=O)Cn2ccnc2)CN1Cc1ccsc1`, the cytotoxicity at 70.5 h was 14.3%.
Take `CC(C)c1ncc(Cl)c(C(=O)N2CCCN3CCCC3C2)n1` (stereo not given): the cytotoxicity at 70.5 h is -0.691%.
In the case of `Cc1csc2ncnc(N3CCCC(Cn4cc(C(C)(C)O)nn4)C3)c12` (stereo not given), the cytotoxicity at 70.5 h was -6.36%.
Then `CCOC(=O)CNC(=O)C1OC(c2ccccc2)=NN1C(C)=O` (stereo not given), with -6.97%; and `CNC(=O)c1cccc(CCNc2ccc(C#N)cn2)c1`, with 0.174%.
Then `CC(NC(=O)Cc1cc2c(cc1Cl)OCCO2)c1ccncn1` (stereo not given), with -2.12%; and `CCCNC(=O)c1ccc(S(=O)(=O)NCC2(O)CCCNC2)cc1` (stereo not given), with -5.48%.
As for `CN(Cc1ccccc1)S(=O)(=O)N1C[C@H](C2CC2)[C@@H](N)C1`, the cytotoxicity at 70.5 h was -1.23%.
`O=C(NCC1CCN(c2ncccn2)CC1)c1cnccn1`: the cytotoxicity at 70.5 h is -12.6%.
For the molecule `CCOc1cc(NC(=O)N(C)Cc2ncnn2C)ccc1C`, the cytotoxicity at 70.5 h is 20.6%.
Then `Cc1nc(C)c(C(=O)N2CCc3nnc(C4CCCN4C)n3CC2)s1` (stereo not given), with -3.4%.
As to `Cc1cc(CNC(C)Cn2cncn2)ccc1Br` (stereo not given), the cytotoxicity at 70.5 h is -87.4%.
With `O=C(NCc1ccccn1)[C@@H]1COC[C@H]2CN(c3ncccn3)C[C@H]21`, the cytotoxicity at 70.5 h is -6.07%.
Then `C[C@H]1CN2C[C@H](O)CC2CN1Cc1ccc2nccnc2c1` (stereo not given in full), with -1.32%.
Then `Cc1noc([C@@H]2CC[C@@H]3[C@@H](CCN3S(C)(=O)=O)O2)n1`, with -16.7%.
For the molecule `c1cc(-c2c[nH]c([C@@H]3COCCN3C3CCCCC3)n2)ccn1`, the cytotoxicity at 70.5 h turned out to be 0.143%.
Consider `Cc1cccc(-c2nccnc2C2CCCN(C)C2)c1C` (stereo not given), for which the cytotoxicity at 70.5 h came to 18.2%.
As to `CN(Cc1ccc(Cl)s1)C(=O)c1ccccc1OCC(N)=O`, the cytotoxicity at 70.5 h was -14.1%.
For the molecule `CCOC(=O)Cn1ccc2cc(NC(=O)N3CCSCC3)ccc21`, the cytotoxicity at 70.5 h came out at 1.82%.
Turning to `Cc1nnc2n1CCN(C(=O)c1cc(C)n(-c3ccccc3)c1C)C2`, the cytotoxicity at 70.5 h is -4.87%.
In the case of `CO[C@@H]1CC[C@H]2[C@H]1OCCN2C(=O)c1nn(C)c2ccccc12`, the cytotoxicity at 70.5 h was 20.6%.
With `CN(C(=O)CN1CCCC1c1cnn(C)c1)C1(C#N)CCCCC1` (stereo not given), the cytotoxicity at 70.5 h is -4.65%.
Turning to `CCOc1cc(F)ccc1NC(=O)N(C(C)CS(C)(=O)=O)C1CC1` (stereo not given), the cytotoxicity at 70.5 h was -4.36%.
Then `CCC1c2ccccc2CCN1C(=O)c1ccnc(C(=O)OC)c1` (stereo not given), with -1.37%; and `Cn1ccnc1C(=O)N1CCOC(Cc2ccccc2Cl)C1` (stereo not given), with 11.6%; and `c1cncc(CN2CCCC(c3nnc(-c4cnccn4)o3)C2)c1` (stereo not given), with -14%.
With `CN(C)c1ccccc1CN1CCC(N2CCCC2=O)CC1`, the cytotoxicity at 70.5 h is 17.8%.
As for `CC(C)CC(=O)N1Cc2ccccc2CC1C(=O)Nc1nccs1` (stereo not given), the cytotoxicity at 70.5 h is -8.5%.
Regarding `COCCC(=O)Nc1cc(CC(C)(C)C)n[nH]1`, the cytotoxicity at 70.5 h is -6.88%.
For `CCN1CCN(C)C2(CCN(Cc3cccc(C)n3)CC2)C1=O`, the cytotoxicity at 70.5 h was -9.88%.
Then `N#Cc1ccc(N2CCC3(CCC(=O)N3Cc3ccncc3)CC2)nc1`, with -6.82%.
As for `O=C(c1cc(Br)ccc1Cl)N1CCN(Cc2ccco2)CC1`, the cytotoxicity at 70.5 h was -4.63%.
On to `Cc1noc(C)c1S(=O)(=O)NC(=O)COc1ccc(C(C)C)cc1`, for which the cytotoxicity at 70.5 h was -9.11%.
On to `COc1ccc(C[C@@H]2CC[C@H](CN(C)C3CCN(C)CC3)O2)cc1`, for which the cytotoxicity at 70.5 h is -5.62%.
Regarding `CCOCC(=O)N1CCc2c(ncnc2N2CCOCC2)C1`, the cytotoxicity at 70.5 h is -3.63%.
As for `Cc1nc(C2CCCN2C(=O)c2cc3c(s2)CCC3)no1` (stereo not given), the cytotoxicity at 70.5 h was -6.34%.
As to `CCCn1ccnc1CN1CCC(Oc2ccc(Cl)cc2)(C(=O)O)CC1`, the cytotoxicity at 70.5 h was -10.4%.
For `FC1(F)CCN(Cc2ccccn2)CC12CCN(c1ncccn1)C2` (stereo not given), the cytotoxicity at 70.5 h is -7.15%.
As for `O=C(N1CCCC(n2cncn2)C1)C1(c2cccc(F)c2)CCC1` (stereo not given), the cytotoxicity at 70.5 h was -8.35%.
Then `Cc1ccccc1CN1CCC[C@H]1c1nc(-c2cncnc2N)no1`, with -3.84%.
`CCn1ccnc1CN1CCCN(C(=O)C2(C#N)CCCCC2)CC1`: the cytotoxicity at 70.5 h was -3.94%.
For `Cc1cccc(CN2C(=O)CO[C@@H]3CN(Cc4nccn4C)C[C@H]32)c1`, the cytotoxicity at 70.5 h was -3.81%.
For `CCCN(C(=O)CNC1CCc2ncnn2C1)C1=CCCCC1` (stereo not given), the cytotoxicity at 70.5 h is -10.9%.
Consider `Cc1ccc(C(=O)N2CCN(CC(O)c3ccc(F)cc3)CC2)s1` (stereo not given), for which the cytotoxicity at 70.5 h was -6.7%.
For the molecule `CC1(C)CN(CCC(=O)NCc2cccc(Cl)c2)CC[C@]1(C)O`, the cytotoxicity at 70.5 h is -9.57%.
As to `CC(C)N1CCC(N2CCOC3(CCCC3)C2)C1=O` (stereo not given), the cytotoxicity at 70.5 h was -6.53%.
For `Cc1nc(C2CCN(C(=O)c3ccc(Cl)s3)CC2)cc(=O)[nH]1`, the cytotoxicity at 70.5 h was -6.29%.
With `NC(=O)C1CCN(C(=O)c2ccn(-c3cccc(F)c3)n2)C1` (stereo not given), the cytotoxicity at 70.5 h was -19.8%.
In the case of `COc1cc(CN2CCN(c3cccc(OC)c3)C(=O)C2)cc(OC)c1`, the cytotoxicity at 70.5 h was -1.7%.
On to `CC(C)N1CCCCC1c1cncc(Cl)n1` (stereo not given), for which the cytotoxicity at 70.5 h was 17.6%.
